# Assay results as given in PMC11680393 (Viruses, 2024).
# What was measured:
# RSV A2 = test: CPE assay, RSV A2 in HEp-2 cells (resazurin); format: cell-based; settings: human respiratory syncytial virus, 120 h, RSV A2 0.2 MOI, 5 days
# in vitro = format: cell-based, Human; settings: human; HEp-2 cells, 5 or 6 days; read-out: Cytotoxicity CC50
# HEp-2 cells = test: in vitro; format: cell-based, Human
structure (smiles),measurement,setting,value
Cc1cnc(N2CC3(CCOCC3)C2)c(C(=O)Nc2ccc(C(=O)N3CCc4cc(C(=O)Nc5c(C)cccc5F)sc4-c4ccccc43)cc2)c1 [PC786],IC50,RSV A2,0.5 nM
same,CC50,in vitro,> 14000 nM
same,concentration up to which cell viability was not affected,HEp-2 cells,≥ 14 µM
